The target of test [1] is T1, IL-23R (Homo sapiens, UniProt Q5VWK5).
T1 construct: HEK293 cells containing IL-23R, IL-12Rβ1 and a firefly luciferase reporter gene driven by a STAT-inducible promoter (Promega); host or cells: HEK293
T1 sequence (Q5VWK5 24-629): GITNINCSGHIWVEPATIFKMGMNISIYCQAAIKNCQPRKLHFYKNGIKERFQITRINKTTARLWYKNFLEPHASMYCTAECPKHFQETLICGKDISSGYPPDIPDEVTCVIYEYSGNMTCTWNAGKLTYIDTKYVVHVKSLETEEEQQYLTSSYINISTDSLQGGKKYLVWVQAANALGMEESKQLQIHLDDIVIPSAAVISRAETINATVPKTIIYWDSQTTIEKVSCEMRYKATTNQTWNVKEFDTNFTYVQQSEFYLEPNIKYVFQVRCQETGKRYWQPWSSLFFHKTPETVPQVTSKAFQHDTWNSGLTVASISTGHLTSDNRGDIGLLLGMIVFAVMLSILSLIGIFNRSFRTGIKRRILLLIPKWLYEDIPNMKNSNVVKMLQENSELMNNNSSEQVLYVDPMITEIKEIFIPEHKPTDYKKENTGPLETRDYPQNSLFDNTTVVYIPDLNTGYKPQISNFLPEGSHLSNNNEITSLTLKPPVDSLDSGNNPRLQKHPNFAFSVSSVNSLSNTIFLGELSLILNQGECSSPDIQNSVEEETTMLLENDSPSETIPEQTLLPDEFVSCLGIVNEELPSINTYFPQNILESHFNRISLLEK
The test can be described thus: IL23R Reporter Assay. To be noted: HEK293 cells containing IL-23R, IL-12Rβ1 and STAT-inducible firefly luciferase reporter; 10 ng/mL IL-23 (EC90); 5 h. Type of test: cell-based. In a few lines: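 IC50 values were fitted with a 4-parameter Hill equation to luciferase signal, scaled between IL-23-only wells (0% inhibition) and 30 μM reference inhibitor (100%). The readout was a STAT-inducible reporter in IL-23R/IL-12Rβ1 HEK293 cells, stimulated with added 10 ng/mL IL-23 (EC90) for 5 h at 37° C and developed with BioGlo.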

Test [2] has as its system IL-23-stimulated phosphorylated STAT3 in peripheral blood mononuclear cells (PBMCs). The test can be described thus: PBMC pSTAT3 Assay. Type of test: cell-based. To be noted: PBMCs from healthy donors; 30 min preincubation with peptide; IL-23 5 ng/mL for 30 min; phospho-STAT3 by MSD. The gist of the method:
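Phospho-STAT3 quantified by Meso Scale assay in lysates of PBMCs exposed to IL-23 (5 ng/mL, 30 min, 37 °C) after 30 min peptide pretreatment. Cells were cryopreserved donor PBMCs activated 4 days with anti-CD3 plus IL-1β (100 ng/mL) and starved ~4 h; IC50 reported.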

Molecules are shown by their SMILES. pIC50: −log10 of the molar value. *1 amine or outer side, *2 acyl side, *3 side chain or, on linkers, in order; H or OH if unused. Where a SMILES comes first, the peptide text is derived from it. Bridges are numbered along the chain shown (N, C = ends). Side-chain parts run from the residue outwards. [ ]: non-standard residue; d: D form. The star is where a group is joined. Trp(7-Me) = Cc1cccc2c(C[C@H](N)C(=O)O)c[nH]c12; C18 diacid = O=C(O)CCCCCCCCCCCCCCCCC(=O)*; γGlu = O=C(O)[C@H](CCC(=O)[*:2])N[*:1]; 2Nal = N[C@@H](Cc1ccc2ccccc2c1)C(=O)O; AEF = NCCOc1ccc(C[C@H](N)C(=O)O)cc1; X2 = C[N+](C)(C)C[C@@H](CC(=O)O)N*; 3Pal = N[C@@H](Cc1cccnc1)C(=O)O; NMeK = CN[C@@H](CCCCN)C(=O)O; Pen = CC(C)(S)[C@H](N)C(=O)O; Suc = O=C(CCC(=O)[*:2])[*:1]; Thp = NC1(C(=O)O)CCOCC1; AEEA = NCCOCCOCC(=O)O; Sar = CNCC(=O)O

For the compound `CC(=O)N(C)CCCC[C@H](CC(=O)C1(NC(=O)[C@H](Cc2ccc3ccccc3c2)NC(=O)[C@H](Cc2ccc(OCCNC(=O)C[N+](C)(C)CCNC(=O)CCOCCOCCOCCOCCOCCOCCOCCOCCOCCOCCOCCOCCNC(=O)CC[C@H](NC(=O)CCCCCCCCCCCCCCCCCCC(=O)O)C(=O)O)cc2)NC(=O)[C@H]2NC(=O)[C@H](CCCCN(C)C(C)=O)NC(=O)[C@H](Cc3c[nH]c4c(C)cccc34)NC(=O)[C@H]([C@@H](C)O)NC(=O)[C@H](CC(=O)N(C)C)NC(=O)[C@@H](NC(=O)CCOCCOCC[N+](C)(C)C)C(C)(C)SSC2(C)C)CCCCC1)C(=O)C[C@@H](CC(N)=O)C(=O)C[C@@H](Cc1cccnc1)C(=O)N(C)CC(=O)N(C)C` [compound 139, cPEG3aCO-Pen(3)-N(N(Me)2)-T-7MeW-K(NMeAc)-Pen(3)-AEF(SP6PEG12gEC20OH)-2Nal-THP-K(NMeAc)-N-3Pya-Sar-CON(Me)2], the pIC50 in test [1] is > 7.30; in test [2] it was > 9.30.

As to `CC(=O)NCCCC[C@@H]1NC(=O)[C@H](Cc2c[nH]c3c(C)cccc23)NC(=O)[C@H]([C@@H](C)O)NC(=O)[C@H](CCCCNC(=O)CCC(=O)N[C@H](CC(=O)O)C[N+](C)(C)C)NC(=O)[C@@H](NC(=O)[C@H](CCCNC(=N)N)NC(C)=O)C(C)(C)SSC(C)(C)[C@@H](C(=O)N[C@@H](Cc2ccc(OCCN)cc2)C(=O)N[C@@H](Cc2ccc3ccccc3c2)C(=O)NC2(C(=O)N[C@@H](CCC(=O)O)C(=O)N[C@@H](CC(N)=O)C(=O)N[C@@H](Cc3cccnc3)C(=O)N(C)[C@@H](CCCCNC(=O)COCCOCCNC(=O)COCCOCCNC(=O)CC[C@H](NC(=O)CCCCCCCCCCCCCCCCC(=O)O)C(=O)O)C(N)=O)CCOCC2)NC1=O` [compound 30, MeCO-r-Pen(3)-K(d)-T-7MeW-K(Ac)-Pen(3)-AEF-2Nal-THP-E-N-3Pya-NMeK(PEG2PEG2gEC18OH)-CONH2] (Ac-R[Pen]K([Suc-X2])T[Trp(7-Me)]K(Ac)[Pen][AEF][2Nal][Thp]EN[3Pal][NMeK]([AEEA-AEEA-γGlu-C18 diacid])-NH2; disulfide 2-7), the pIC50 in test [1] was > 7.30; in test [2] it was > 9.30.

Turning to `Cc1cccc2c(C[C@@H]3NC(=O)[C@H]([C@@H](C)O)NC(=O)[C@H](CC(N)=O)NC(=O)[C@@H](NC(=O)[C@@H](CCCNC(=N)N)CC(=O)COCCOCCNC(=O)COCCOCCNC(=O)CC[C@H](NC(=O)CCCCCCCCCCCCCCCCC(=O)O)C(=O)O)C(C)(C)SSC(C)(C)[C@@H](C(=O)N[C@@H](Cc4ccc(OCCN)cc4)C(=O)N[C@@H](Cc4ccc5ccccc5c4)C(=O)NC4(C(=O)N[C@@H](CCC(=O)O)C(=O)N[C@@H](CC(N)=O)C(=O)N[C@@H](Cc5cccnc5)C(=O)N(C)CC(N)=O)CCOCC4)NC(=O)[C@H](CCCCN(C)C(=O)CCCCCOCC[N+](C)(C)C)NC3=O)c[nH]c12` [compound 84, HOC18gEPEG2PEG2CO-r-Pen(3)-N-T-7MeW-K(NMecPEG3a)-Pen(3)-AEF-2Nal-THP-E-N-3Pya-Sar-CONH2], the pIC50 in test [1] was > 7.30; in test [2] it was > 9.30.

For `CC(=O)N[C@H](CCCNC(=N)N)C(=O)N[C@@H]1C(=O)N[C@@H](CC(N)=O)C(=O)N[C@@H]([C@@H](C)O)C(=O)N[C@@H](Cc2c[nH]c3c(C)cccc23)C(=O)N[C@@H](CCCCNC(=O)CCC(=O)N[C@H](CC(=O)O)C[N+](C)(C)C)C(=O)N[C@H](C(=O)N[C@@H](Cc2ccc(OCCNC(=O)COCCOCCNC(=O)COCCOCCNC(=O)CC[C@H](NC(=O)CCCCCCCCCCCCCCCCC(=O)O)C(=O)O)cc2)C(=O)N[C@@H](Cc2ccc3ccccc3c2)C(=O)NC2(C(=O)N[C@@H](CCC(=O)O)C(=O)N[C@@H](CC(N)=O)C(=O)N[C@@H](Cc3cccnc3)C(=O)N(C)CC(N)=O)CCOCC2)C(C)(C)SSC1(C)C` [compound 13, MeCO-r-Pen(3)-N-T-7MeW-K(d)-Pen(3)-AEF(PEG2gEC18OH)-2Nal-THP-E-N-3Pya-Sar-CONH2] (Ac-[dR][Pen]NT[Trp(7-Me)]K([Suc-X2])[Pen][AEF]([AEEA-AEEA-γGlu-C18 diacid])[2Nal][Thp]EN[3Pal][Sar]-NH2; disulfide 2-7), the pIC50 in test [1] was 6.30 to 7.30; in test [2] it was 8.30 to 9.30.

For the origin of these results see patent US20260250320A1, “LIPIDATED PEPTIDE INHIBITORS OF INTERLEUKIN-23 RECEPTOR” (Janssen Pharmaceutica NV, priority 2023, published 2026).
